The source of these data is publication PMC8346996, “Antiradical Properties of N-Oxide Surfactants—Two in One” (International Journal of Molecular Sciences, 2021).

In brackets after ≈: the same amount, converted by molar mass. Like-named read-outs stand apart in the source and are kept apart here. Marks after values point to notes of the source that are not given here.

Series [1] is described as follows: MTT cell viability assay, HaCaT. Type of series: cell-based, human. The following applies: human, HaCaT cells (immortalized human keratinocytes), evaluated for CMC. The method, then: (§1) HaCaT (immortalized human keratinocytes from histologically normal skin) cell line was obtained from the CLS Cell Lines Service GmbH (Eppelheim, Germany). HGFs (human gingival fibroblasts) derive from primary cell culture. The cells were isolated according to the procedure described by Saczko et al. and patented by Saczko et al.. Cells were grown in plastic cell culture flasks in Dulbecco’s Modified Eagle’s Medium, supplemented with fetal bovine serum (FBS, Lonza, Morrisville, NC, USA), with 100 IU/mL penicillin, 50 mg streptomycin, and 125 μg amphotericin B (Sigma). The cells were maintained in a humidified atmosphere at 37 °C and 5% CO2. The cells were regularly maintained by systematic passaging. For experimental purposes, the cells were removed by trypsinization (0.25% Trypsin-EDTA, Sigma).
(§2) MTT (Sigma) test was used to determine the viability of HaCaT and HGFs cells. The MTT assay was used to test mitochondrial metabolic functioning. Cells were seeded on flat bottom 96-well tissue culture plates at a density of 10^4 cells/well and allowed to grow in a CO2 incubator at 37 °C overnight. In the case of these studies, the culture medium was removed, surfactant solutions were added, and the cells were exposed for 24 and 48 h to compounds at doses ranging from 50 to 2000 μg/mL. After incubation, MTT assay was applied according to the manufacturer protocol. The absorbance was measured at 570 nm using a multiwell plate reader (EnSpire Multimode Reader, Perkin Elmer). Each experiment was performed in a few independent repetitions. Mean values and standard deviations of all results were calculated. The final results were expressed as the percentage of mitochondrial function relative to untreated control cells.
For orientation: Tetrazolium assays rely on reduction of a dye to a coloured formazan, in cell work by metabolically active cells.

The test system of series [2] is normal human keratinocytes (HaCaT). Nature of the series: MTT cell viability assay, HaCaT. Type of series: cell-based. The following applies: Homo sapiens, HaCaT, MTT. How it is done:
as §1, §2

The nature of series [3]: MTT cell viability assay, HGFs. It is filed as cell-based, human. As to conditions: human, primary human gingival fibroblasts (HGFs), evaluated for CMC; for viability at 24 h: read-out: Viability 24 h HGF’s; for viability at 48 h: read-out: Viability 48 h HGF’s. How it is done:
as §1, §2

Series [4] deals with primary fibroblasts (HGFs). In words: MTT cell viability assay, HGFs. It is filed as cell-based, human. The following applies: Homo sapiens, Fibroblast, MTT. The method, then:
as §1, §2

On the set-up of series [5]: method as in PMID 23098238. The following applies: cited from earlier work.
The nature of series [6]: DPPH• scavenging kinetics by UV-vis, pseudo-first-order conditions. The following applies: for second-order rate constant k2 for the reaction with DPPH•: ethanol, 298 K, deaerated, DPPH• 2.2 × 10^−4 M, surfactant 0.012-0.12 M; for k2 higher in comparison with the CnPDA homolog: reaction with DPPH•. How it is done:
After confirming that the absorption maximum at 517 nm of DPPH• is outside the surfactant’s absorption range, the rate of the DPPH•-scavenging reaction of the N-oxides was measured by monitoring the decrease in absorbance of this maximum. To ensure that the decay of DPPH• obeyed pseudo-first-order kinetics, the concentration of surfactants was at least a 54-fold excess of the DPPH• concentration. As explained in SI, the calculated pseudo-first-order rate constants, kobs, increased linearly with the concentration of Cn(DAPANO)2 and CnPDA (shown in SI). The second-order rate constants k2 for the reaction between the N-oxides and DPPH• were determined from the slopes of the linear plots of kobs vs. the concentration of the surfactants and are given in Figure 6.
The measurements were done under deaerated conditions at 298 K in ethanol solutions (2 mL in a 10 mm quartz cuvette) containing DPPH^• (C = 2.2 × 10^−4 M) and a surfactant at each of five different concentrations, namely C1 = 0.12 M, C2 = 0.09 M, C3 = 0.06 M, C4 = 0.03 M, and C5 = 0.012 M. UV−vis spectral changes associated with the undergoing reaction were monitored at 516 nm, using a Varian Cary 50Conc UV−visible Spectrophotometer. The following equations of the calibration curve were used to calculate DPPH^• concentrations in the reaction system: Abs = 4.0189 × C[mM] + 0.00813 (R^2 = 0.9998). The rate of DPPH^• scavenging reaction was determined using pseudo-first-order kinetics (the concentration of CnPDA or Cn(DAPANO)2 was maintained at more than 54-fold excess of the radical concentration); further details are given as Supporting Information.
(DPPH is a stable violet radical that fades when it is reduced.)

On the set-up of series [7]: method as in PMID 23098238. The following applies: cited from earlier work. This is another data set of the same source.
Series [8] can be described thus: Hydrodynamic radius of micelles by dynamic light scattering (DLS). Type of series: physicochemical. The following applies: 298 K, surfactant at 100 x CMC. The method, then: The hydrodynamic diameter for CnPDA was determined by the DLS method. The measurements were performed using a Nano Series Zetasizer from Malvern Instruments (UK) with a detection angle of 173°, equipped with a He−Ne laser (632.8 nm) and an ALV 5000 multibit multitau autocorrelator. Before the measurements, the samples were filtered through a filter (with a pore size of 0.2 μm) directly into the optical cell to remove any impurities. All of the DLS measurements were performed at 298 ± 0.1 K and at a surfactant concentration a hundred times higher than the critical micelle concentration (CMC). Each value was obtained as the average of three runs with at least 10 measurements. The DTS software (Nano) was used to evaluate the data.

The test system of a further series is primary fibroblasts. Nature of the series: ROS evaluation (DCF assay), primary fibroblasts. Type of series: cell-based, human. As to conditions: after ROS induction by DHTTP; surfactant in CMC concentration. How it is done:
(§3) Antioxidative properties of the tested surfactant were evaluated. To induce ROS production, a DPPH solution was prepared (C = 2.55 × 10^−3 mol/dm3). Normal fibroblasts and keratinocytes were seeded on flat bottom 96-well tissue culture plates at a density of 10^4 cells/well and allowed to grow in a CO2 incubator at 37°C overnight. Then, culture medium was removed and 200 µL of DPPH solution in DMEM was added to the plate and left for 1 h in a CO2 incubator at 37 °C. After incubation, DPPH solution was removed and ROS production was determined using DCF assay (Life Technologies, Warsaw, Poland). The DCF assay was conducted with 6-carboxy-2′,7′-dichlorodihydrofluorescein diacetate 2′,7′-dichlorofluorescein (carboxy-H2DCFDA). After deacetylation of H2DCFDA to H2DCF or carboxy-H2DCFDA to carboxy-H2DCF, cellular ROS oxidize H2DCF and carboxy-H2DCF to 2′,7′-dichlorofluorescein (DCF) and 2′,7′-carboxydichlorofluorescein (carboxy-DCF), respectively. The carboxy-H2DCFDA was dissolved in sterile DMSO to generate a stock solution of 50 µg/mL. For experiments, the stock solution of carboxy-H2DCFDA was brought to room temperature in the dark and then diluted in a cell culture medium without FBS. After washout of the incubation medium from cells with PBS, the reagent was added to cell culture to a final concentration of 10 µM and for 30 min was incubated at 37 °C in darkness. After incubation, excitation wavelength of 495 nm and emission wavelength of 530 nm were used by a multiwell scanning spectrophotometer (EnSpire Perkin Elmer, Krakow, Poland). In the next stage, surfactant solutions in CMC concentrations were added into cells after 1 h incubation with DHTTP solution. Cells were incubated, and ROS were detected 30 min by a multiwell scanning spectrophotometer (EnSpire Perkin Elmer, Poland).

The test system of the next series is human keratinocytes. In words: ROS evaluation (DCF assay), human keratinocytes. It is filed as cell-based. The following applies: after ROS induction by DHTTP; surfactant in CMC concentration. How it is done: as §3
[9] abbreviates: 24 h incubation, read-out: IC50 HaCaT 24 h.
[10] abbreviates: 48 h incubation, read-out: IC50 HaCaT 48 h.
The mark [11] stands for this setting: 24 h incubation, read-out: IC50 HGFs 24 h.
[12] abbreviates: 48 h incubation, read-out: IC50 HGFs 48 h.

As to `CCCCCCCCCC(=O)N(CCC[N+](C)(C)[O-])CCC[N+](C)(C)[O-]` [C10(DAPANO)2], the values for the viability at 24 h in series [1] and in series [3] were 8.1% and 16.2%, respectively. Also, the viability (in general, a read-out of living cells in per cent, often relative to untreated cells) at 48 h in [1] came to 18.2%; in series [3] it was 9.7%. In addition, the 50% inhibitory concentration (IC50) (commonly the midpoint of a concentration-inhibition curve) in series [2] (setting [9]) stood at 98 µg/mL (≈ 262 µM); in series [2] (setting [10]), 97 µg/mL (≈ 260 µM); in [4] (setting [11]), 34.5 µg/mL (≈ 92.3 µM); in series [4] (setting [12]), 1.9 µg/mL (≈ 5.09 µM). Also, the “RH DLS” value in series [5] is given as 1.75 ^a nm. In addition, the “second-order rate constant k2 for the reaction with DPPH•” value (shortened to “second-order rate constant k2”) in series [6] amounted to 0.000947 M⁻¹ s⁻¹. Further, the “k2 higher in comparison with the CnPDA homolog” value in [6] is on record as 11%. Further, in [7], the CMC is reported as 3.0·10^−2 a M.
For `CCCCCCCCCC(=O)NCCC[N+](C)(C)[O-]` [C10PDA], the viability at 24 h worked out at 34.7% in [1] and 98.6% in [3]. Further, the values for the viability at 48 h in series [1] and in series [3] were 84.8% and 20.2%, respectively. The IC50 in series [2] (setting [9]) stood at 43.8 µg/mL (≈ 161 µM); in series [2] (setting [10]), 41.5 µg/mL (≈ 152 µM); in series [4] (setting [11]), 77.9 µg/mL (≈ 286 µM); in series [4] (setting [12]), 38.7 µg/mL (≈ 142 µM). The “RH DLS” value in series [8] worked out at 1.67 nm. Also, in [6], the “second-order rate constant k2” value amounted to 0.000853 M⁻¹ s⁻¹.
Take `CCCCCCCCCCCCCC(=O)N(CCC[N+](C)(C)[O-])CCC[N+](C)(C)[O-]` [C14(DAPANO)2]: the viability at 24 h in [1] was 11.3%; in series [3], 17.7%. In addition, the viability at 48 h in series [1] worked out at 4.5%; in series [3], 11.5%. For the same compound, the IC50 turned out to be 32 µg/mL (≈ 74.5 µM) in series [2] (setting [9]), 17 µg/mL (≈ 39.6 µM) in series [2] (setting [10]), 68.5 µg/mL (≈ 159 µM) in series [4] (setting [11]) and 0.89 µg/mL (≈ 2.07 µM) in series [4] (setting [12]). The “RH DLS” value in series [5] was 2.28 ^a nm. For the same compound, the “radical (ROS) level, DCF fluorescence” value in the series on primary fibroblasts and with human keratinocytes was “not significant decrease in radical level” in each case. In series [6], the “second-order rate constant k2” value was determined as 0.00117 M⁻¹ s⁻¹. Further, the “k2 higher in comparison with the CnPDA homolog” value in series [6] is on record as 16%. Also, the CMC in series [7] is recorded as 8.0·10^−4 a M.
Take `CCCCCCCCCCCCCC(=O)NCCC[N+](C)(C)[O-]` [C14PDA]: the viability at 24 h came to 81.1% in [1] and 104% in series [3]. The viability at 48 h in [1] was 119%; in series [3] it was 78.2%. Besides, the concentration for half-maximal inhibition (IC50) in series [2] (setting [9]) stood at 48.1 µg/mL (≈ 146 µM); in series [2] (setting [10]), 9.9 µg/mL (≈ 30.1 µM); in series [4] (setting [11]), 69.9 µg/mL (≈ 213 µM); in series [4] (setting [12]), 1.6 µg/mL (≈ 4.87 µM). Moreover, the “RH DLS” value in [8] is on record as 2.19 nm. Further, the “radical (ROS) level, DCF fluorescence” value in the series with primary fibroblasts and with human keratinocytes was “most significant decrease of fluorescence level” throughout. Also, the “second-order rate constant k2” value in series [6] amounted to 0.00101 M⁻¹ s⁻¹.
As for `CCCCCCCCCCCCCCCC(=O)N(CCC[N+](C)(C)[O-])CCC[N+](C)(C)[O-]` [C16(DAPANO)2], the viability at 24 h in [1] amounted to 14.7%; in series [3] it was 27.8%. The viability at 48 h in series [1] turned out to be 3.9%; in [3], 12.3%. The IC50 was 29 µg/mL (≈ 63.4 µM) in [2] (setting [9]), 18.2 µg/mL (≈ 39.8 µM) in series [2] (setting [10]), 14.3 µg/mL (≈ 31.2 µM) in series [4] (setting [11]) and 0.76 µg/mL (≈ 1.66 µM) in [4] (setting [12]). In series [5], the “RH DLS” value was 2.38 ^a nm. In addition, the “radical (ROS) level, DCF fluorescence” value with primary fibroblasts and with human keratinocytes was “not significant decrease in radical level” each time. In addition, the “second-order rate constant k2” value in series [6] came to 0.00138 M⁻¹ s⁻¹. Moreover, the “k2 higher in comparison with the CnPDA homolog” value in [6] was 10%. The CMC in series [7] is 1.5·10^−4 a M.
Consider `CCCCCCCCCCCCCCCC(=O)NCCC[N+](C)(C)[O-]` [C16PDA], for which the viability at 24 h is 140% in series [1] and 96.9% in series [3]. In addition, the viability at 48 h was 123% in series [1] and 81.7% in series [3]. The IC50 is 48.1 µg/mL (≈ 135 µM) in series [2] (setting [9]), 9.8 µg/mL (≈ 27.5 µM) in series [2] (setting [10]), 44.1 µg/mL (≈ 124 µM) in [4] (setting [11]) and 1.9 µg/mL (≈ 5.33 µM) in series [4] (setting [12]). Further, the “RH DLS” value in series [8] was 2.27 nm. In addition, the “second-order rate constant k2” value in series [6] came out at 0.00125 M⁻¹ s⁻¹.
